Measured values: patent publication US6846843B2, “β-thioamino acids” (Gruenenthal GmbH, priority 2000, dated 2005)
Structures can show the parent of a compound that is named as a salt. Where two headings read alike, the source gives them in different places.

Target: gabapentin binding site
Assay: Gabapentin binding assay (displacement of gabapentin from its binding site)
Details: for IC50: displacement of gabapentin, read-out: Affinity (IC50); for % Inhibition (Concn.): inhibition of gabapentin binding
Procedure: Gabapentin is used in the binding assay in order to determine the binding and affinities of the selected compounds. The affinity of the compounds according to the invention is measured via the displacement of gabapentin from its binding site.

Row | SMILES | IC50 [nM] | % Inhibition (Concn.) | IC50 (hydrochloride) [nM]
1 | CCC(C)(S)C(N)C(=O)O (racemic) [Compound 1, rac-2-amino-3-mercapto-3-methylpentanoic acid hydrochloride] | 268 | – | –
2 | CCCCC(C)(S)C(N)C(=O)O.Cl (racemic) [Compound 3, rac-2-amino-3-mercapto-3-methylheptanoic acid hydrochloride] | 280 | 99.7% | –
3 | CCC(S)(CC)C(N)C(=O)O (racemic) [Compound 7, rac-2-amino-3-ethyl-3-mercaptopentanoic acid hydrochloride] | 258 | – | –
4 | CCCC(S)(CC)C(N)C(=O)O.Cl (racemic) [Compound 9, rac-amino-3-ethyl-3-mercaptohexanoic acid hydrochloride] | 339 | 97.5% | –
5 | CCCCCCCC(C)(S)C(N)C(=O)O (racemic) [Compound 11, rac-erythro-2-amino-3-mercapto-3-methyldecanoic acid hydrochloride] | – | – | 120
6 | CCCCCCC(C)(S)C(N)C(=O)O (racemic) [Compound 13, rac-erythro-2-amino-3-mercapto-3-methylnonanoic acid hydrochloride] | – | – | 30
7 | CCCCCC(C)(S)C(N)C(=O)O (racemic) [Compound 14, rac-threo-2-amino-3-mercapto-3-methyloctanoic acid hydrochloride] | – | – | 100
8 | CCCCCC(C)(SCC)C(N)C(=O)O.Cl (racemic) [Compound 15, rac-2-amino-3-ethylsulfanyl-3-methyloctanoic acid hydrochloride] | – | 92% (10^−5 μm) | –
9 | CCCCCC(C)(SCc1ccccc1)C(N)C(=O)O (racemic) [Compound 16, rac-threo-2-amino-3-benzylsulfanyl-3-methyl-octanoic acid hydrochloride] | 1800 | 93% | –
10 | CCCC(S)(CCC)C(N)C(=O)O (racemic) [Compound 17, rac-2-amino-3-mercapto-3-propyl-3-hexanoic acid hydrochloride] | 2350 | – | –
11 | Cl.NC(C(=O)O)C1(S)CCCCCC1 (racemic) [Compound 18, rac-amino-(1-mercaptocycloheptyl)acetic acid hydrochloride] | – | 15% (10^−5 μm) | –
12 | CCCCCCC(C)(SCC)C(N)C(=O)O (racemic) [Compound 19, rac-2-amino-3-ethylsulfanyl-3-methylnonanoic acid hydrochloride] | 271 | – | –
13 | CCCCCCC(C)(SCCC)C(N)C(=O)O (racemic) [Compound 20, rac-2-amino-3-methyl-3-propylsulfanylnonanoic acid hydrochloride] | 3050 | – | –
14 | CCCCCCSC(C)(CCCCCC)C(N)C(=O)O (racemic) [Compound 21, rac-2-amino-3-hexylsulfanyl-3-methylnonanoic acid hydrochloride] | 12400 | – | –

The next lines start with the values.

Row | IC50 [nM] | % Inhibition (Concn.) | IC50 (hydrochloride) [nM] | SMILES
15 | 336 | – | – | CCCCCCC(C)(SCc1ccccc1)C(N)C(=O)O (racemic) [Compound 22, rac-2-amino-3-benzylsulfanyl-3-methyl-nonanoic acid hydrochloride]
16 | – | 91% (10^−5 μm) | – | CCCCCCCC(C)(SCc1ccccc1)C(N)C(=O)O.Cl (racemic) [Compound 23, rac-2-amino-3-benzylsulfanyl-3-methyldecanoic acid hydrochloride]
17 | – | 90% (10^−5 μm) | – | CCCCCCCC(C)(SCC)C(N)C(=O)O.Cl (racemic) [Compound 24, rac-2-amino-3-ethylsulfanyl-3-methyldecanoic acid hydrochloride]
18 | – | 40% (10^−5 μm) | – | Cl.NC(C(=O)O)C(S)(c1ccc(F)cc1)C1CC1 (racemic) [Compound 25, rac-2-amino-3-cyclopropyl-3-(4-fluorophenyl)-3-mercapto-propionic acid hydrochloride]
19 | 703 | – | – | CC(S)(C1CC1)C(N)C(=O)O (racemic) [Compound 26, rac-2-amino-3-cyclopropyl-3-mercaptobutanoic acid hydrochloride]
20 | 589 | – | – | CC(S)(C1CCC1)C(N)C(=O)O (racemic) [Compound 27, rac-2-amino-3-cyclobutyl-3-mercapto-butanoic acid hydrochloride]
21 | 1320 | – | – | CC(S)(C1CCCCC1)C(N)C(=O)O (racemic) [Compound 28, rac-2-amino-3-cyclohexyl-3-mercaptobutanoic acid hydrochloride]
22 | – | 30% (10^−5 μm) | – | CC(S)(c1cccs1)C(N)C(=O)O.Cl (racemic) [Compound 29, rac-2-amino-3-mercapto-3-thiophen-2-yl-butanoic acid hydrochloride]
23 | 314 | – | – | CCCCC(S)(CC)C(N)C(=O)O (racemic) [Compound 30, rac-2-amino-3-ethyl-3-mercaptoheptanoic acid hydrochloride]
24 | 187 | – | – | NC(C(=O)O)C1(S)CCCCC1 (racemic) [Compound 31, rac-amino-(1-mercaptocyclohexyl)ethanoic acid hydrochloride]
25 | 223 | – | – | CC1CCCC(S)(C(N)C(=O)O)C1 (racemic) [Compound 32, rac-amino-(1-mercapto-3-methylcyclohexyl)ethanoic acid hydrochloride]
26 | 528 | – | – | CC1CCCCC1(S)C(N)C(=O)O (racemic) [Compound 33, rac-amino-(1-mercapto-2-methylcyclohexyl)ethanoic acid hydrochloride]
27 | 1000 | – | – | CC1CCC(S)(C(N)C(=O)O)CC1 (racemic) [Compound 34, rac-amino-(1-mercapto-4-methylcyclohexyl)ethanoic acid hydrochloride]
28 | – | 84% (10^−5 μm) | – | Cl.NC(C(=O)O)C1(S)CCSCC1 (racemic) [Compound 35, rac-amino-(4-mercaptotetrahydrothiopyran-4-yl)ethanoic acid hydrochloride]
29 | – | 88% (10^−5 μm) | – | CC(C)C(C)(S)C(N)C(=O)O.Cl (racemic) [Compound 36, rac-2-amino-3-mercapto-3,4-dimethylpentanoic acid hydrochloride]
30 | 196 | – | – | CCC(C)C(C)(S)C(N)C(=O)O (racemic) [Compound 37, rac-2-amino-3-mercapto-3,4-dimethylhexanoic acid hydrochloride]
